Laboratory results published in patent publication US20200253877A1, “GEMCABENE, PHARMACEUTICALLY ACCEPTABLE SALTS THEREOF, COMPOSITIONS THEREOF AND METHODS OF USE THEREFOR” (NEUROBO PHARMACEUTICALS, INC., priority 2018, published 2020).

Key:
[1] = test system: STAM™ mice, a murine model of NASH-HCC; test: Murine STAM model of NASH-HCC: whole blood, plasma and liver biochemistry; settings: for fasting whole blood glucose concentrations: 3 days prior to termination, 8 h fasting, oral daily wk 6-9; for fasting whole blood glucose concentrations / whole blood glucose levels / liver triglyceride content: gemcabene Form 1 30, 100, 300 mg/kg; for plasma ALP levels: vs vehicle-treated NASH group; for plasma triglyceride concentrations: gemcabene Form 1 30, 100, 300 mg/kg (dose-dependent manner)
[2] = test system: STAM™ mice, a murine model of NASH-HCC; test: Murine STAM model of NASH-HCC: liver histology (H&E, NAFLD Activity Score, Sirius red fibrosis area); format: in vivo, mouse; design: key to NAS (mean ± SD) / NAFLD Activity Score: NAS = unweighted sum of steatosis, lobular inflammation, ballooning scores; settings: for fibrosis area (Sirius red-positive area): all gemcabene Form 1 groups (30, 100, 300 mg/kg)
Text: The present invention further provides methods for reducing a fibrosis score or a nonalcoholic fatty liver disease activity score in a subject, comprising administering to a subject in need thereof an effective amount of a tablet of the invention, gemcabene calcium salt hydrate Crystal Form 4, gemcabene calcium salt hydrate Crystal Form 5 or gemcabene calcium salt hydrate Crystal Form 6. The nonalcoholic fatty liver disease activity score (NAS or NAFLD score) is a composite score that measures changes in NAFLD during therapeutic trials. NAS is a composite score comprised of three components that includes scores for steatosis, lobular inflammation and hepatocyte ballooning (Table 36). NAS is the unweighted sum of the scores for steatosis, lobular inflammation and hepatocyte ballooning. Steatosis grade is quantified as the percentage of hepatocytes that contain fat droplets. The fibrosis stage of the liver is evaluated separately from NAS by histological evaluation of the intensity of Sirius red staining of collagen in the pericentral region of liver lobules.
A study was performed to evaluate the efficacy of gemcabene calcium salt hydrate Crystal Form 1 having a PSD90 of 52 μm as measured by laser light diffraction, in treating non-alcoholic steatosis hepatitis (NASH) in the murine STAM™ model of NASH-HCC.
Briefly, two-day old neonatal C57BL/6 male mice were administered low-dose streptozotocin (STZ), and were subsequently fed a HFC diet from 4 weeks of age. In this model, the mice typically develop liver steatosis and diabetes, reaching steatohepatitis within 3 weeks, followed by cirrhosis within 8 weeks, and carcinoma within 16 weeks. In the current study, mice were administered daily oral gemcabene calcium salt hydrate Crystal Form 1 starting at week 6 of age and were sacrificed at week 9. […] These STAM™ groups were orally administered from week 6 one of the following: water-vehicle, gemcabene calcium salt hydrate Crystal Form 1 at 30, 100 and 300 mg/kg daily, or telmisartan ([…]®) 10 mg/kg daily. […] All groups were sacrificed at week 9. Vehicle, gemcabene calcium salt hydrate Crystal Form 1, or telmisartan were administered by oral gavage once daily.
For Hematoxylin and Eosin (H&E) staining, sections were cut from paraffin blocks of liver tissue prefixed in Bouin's solution and stained with Lillie-Mayer's Hematoxylin (Muto Pure Chemicals Co., Ltd., Japan) and eosin solution (Wako Pure Chemical Industries). NAFLD Activity score (NAS) was calculated according to the criteria of Kleiner, D E. Et al., Hepatology, 2005; 41:1313-1321. To visualize collagen deposition, Bouin's fixed liver sections were stained using picro-Sirius red solution (Waldeck, Germany). For Masson Trichrome staining, the sections were stained with Masson's Trichrome staining Kit (Sigma, USA) according to the manufacturer's instructions.
For quantitative analysis of fibrosis area, bright field images of Sirius red-stained sections were captured around the central vein using a digital camera (DFC295; Leica, Germany) at 200-fold magnification, and the positive areas in 5 fields/section were measured using ImageJ software (National Institute of Health, USA). Samples were analyzed in a blinded fashion.

[3] = vs vehicle-treated STAM mice, telmisartan 10 mg/kg
[4] = at termination, gemcabene Form 1 100 and 300 mg/kg, telmisartan 10 mg/kg
[5] = at termination, vs vehicle-treated STAM mice, telmisartan 10 mg/kg
[6] = vs vehicle-treated STAM mice, gemcabene Form 1 100 and 300 mg/kg, telmisartan 10 mg/kg
[7] = vs vehicle-treated STAM mice, gemcabene Form 1 30 and 300 mg/kg, telmisartan 10 mg/kg
[8] = 10 mg/kg PO QD, Day 18 after 8 hours of fasting, mean ± SD, n = 8
[9] = 10 mg/kg PO QD, at termination (Day 21), mean ± SD, n = 7

CC(C)(CCCCOCCCCC(C)(C)C(=O)O)C(=O)O.[Ca] [6-(5-Carboxy-5-methyl-hexyloxy)-2,2-dimethylhexanoic acid calcium]
fasting whole blood glucose concentrations [1, 3]: no significant differences | plasma CRP levels ([1]; STAM mice): decreased | plasma ALP levels [1, 4]: significant increases | plasma creatinine levels ([1]; at termination, vs vehicle-treated STAM group, gemcabene Form 1 300 mg/kg): significant increase | plasma ALT levels ([1]; at termination, vs vehicle-treated STAM mice, gemcabene Form 1 100 mg/kg): significant decrease | whole blood glucose levels [1, 5]: no significant differences | plasma total cholesterol concentrations ([1]; vs vehicle-treated STAM mice, gemcabene Form 1 30 mg/kg): no significant difference | plasma triglyceride concentrations [1, 3]: significant decreases | liver triglyceride content [1, 3]: no significant differences | plasma total cholesterol concentrations [1, 6]: significant increases | micro- and macro-vesicular hepatic fat deposition, hepatocellular ballooning and inflammatory cell infiltration (H&E) ([2]; STAM mice): diminished | fibrosis area (Sirius red-positive area) [2, 3]: significant decreases | NAFLD Activity Score (NAS) ([2]; vs vehicle-treated STAM mice, gemcabene Form 1 100 mg/kg (trending lower)): no significant difference | steatosis score and ballooning score ([2]; vs vehicle-treated STAM mice, gemcabene Form 1 300 mg/kg): significant decrease | NAFLD Activity Score (NAS) [2, 7]: significant reduction | lobular inflammation and ballooning scores [2, 7]: lower | steatosis (H&E-stained liver sections) [2, 7]: less steatosis

CCCc1nc2c(C)cc(-c3nc4ccccc4n3C)cc2n1Cc1ccc(-c2ccccc2C(=O)O)cc1 [telmisartan, reference compound]
Fasting blood glucose [1, 8]: 742 ± 90 mg/dL | Plasma insulin [1, 8]: 0.16 ± 0.04 ng/mL | Liver free fatty acid [1, 9]: 46.8 ± 10.7 pEq/g liver | Liver hydroxyproline [1, 9]: 0.91 ± 0.12 μg/mg total protein | Liver triglyceride [1, 9]: 31.7 ± 6.4 mg/g liver | Non-fasting blood glucose [1, 9]: 856 ± 62 mg/dL | Plasma ApoC-III [1, 9]: 6.2 ± 0.7 gg/mL | Plasma CRP [1, 9]: 3.0 ± 0.4 gg/mL | Plasma adiponectin [1, 9]: 6.8 ± 0.9 gg/mL | Plasma alanine aminotransferase [1, 9]: 39 ± 15 U/L | Plasma alkaline phosphatase [1, 9]: 567 ± 104 U/L | Plasma aspartate aminotransferase [1, 9]: 121 ± 38 U/L | Plasma blood urea nitrogen [1, 9]: 85.0 ± 17.4 mg/dL | Plasma creatinine [1, 9]: 0.1 ± 0.0 mg/dL | Plasma gamma-glutamyl transferase [1, 9]: 1 ± 0 U/L | Plasma ketone body [1, 9]: 8.11 ± 3.27 m M | Plasma leptin [1, 9]: 2.9 ± 1.1 ng/mL | Plasma total bilirubin [1, 9]: 0.3 ± 0.1 mg/dL | Plasma total cholesterol [1, 9]: 208 ± 19 mg/dL | Plasma triglyceride [1, 9]: 569 ± 256 mg/dL | fasting whole blood glucose concentrations [1, 3]: significant increase | plasma ALP levels [1, 4]: significant increases | whole blood glucose levels [1, 5]: significant increase | plasma BUN levels [1, 5]: significant increase | plasma triglyceride concentrations [1, 3]: no significant difference | liver triglyceride content [1, 3]: significant decrease | plasma total cholesterol concentrations [1, 6]: significant increases | Lobular Inflammation score 1: number of mice ([2]; 10 mg/kg PO QD, n = 7): 4 | NAS (mean ± SD) ([2]; 10 mg/kg PO QD, n = 7): 2.6 ± 1.0 | Steatosis score 0: number of mice ([2]; 10 mg/kg PO QD, n = 7, score 0 = <5%): 1 | Lobular Inflammation score 0: number of mice ([2]; 10 mg/kg PO QD, n = 7, score 0 = No foci): 2 | Hepatocyte Ballooning score 0: number of mice ([2]; 10 mg/kg PO QD, n = 7, score 0 = None): 2 | Steatosis score 1: number of mice ([2]; 10 mg/kg PO QD, n = 7, score 1 = 5-33%): 6 | Hepatocyte Ballooning score 1: number of mice ([2]; 10 mg/kg PO QD, n = 7, score 1 = Few balloon cells): 4 | Lobular Inflammation score 2: number of mice ([2]; 10 mg/kg PO QD, n = 7, score 2 = 2-4 foci/200x): 1 | Hepatocyte Ballooning score 2: number of mice ([2]; 10 mg/kg PO QD, n = 7, score 2 = Many cells/prominent ballooning): 1 | NAFLD Activity Score ([2]; 10 mg/kg, STAM mice): 2.6 | Sirius red-positive area ([2]; 10 mg/kg, STAM mice): 0.48% | fibrosis area (Sirius red-positive area) [2, 3]: significant decreases | NAFLD Activity Score (NAS) [2, 7]: significant reduction | lobular inflammation and ballooning scores [2, 7]: lower | steatosis (H&E-stained liver sections) [2, 7]: less steatosis
